Assay results published in the supplement of paper PMC10307832.

Key:
Assay in all cases: relative viability (nuclei count vs DMSO), 5 days (fraction); higher = more cells survive
[1] = compound: CC1=CC(=NN1)NC2=CC(=NC(=N2)/C=C/C3=CC=CC=C3)N4CCN(CC4)C + C[C@@H](Oc1cc(-c2cnn(C3CCNCC3)c2)cnc1N)c1c(Cl)ccc(F)c1Cl [Crizotinib] (partner 1 µM)
Method in brief: (§1)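 Relative viability is defined as nuclei in treated wells over nuclei in vehicle wells. Duplicate plates were run and medians reported. Lung cancer cell lines in 1536-well plates were dosed by pin tool one day after seeding, with one drug or with a fixed anchor-drug dose plus five library-drug doses (not always all listed) in √10 steps, and nuclei were counted after 5 days.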

[2] = compound: CC1=CC(=NN1)NC2=CC(=NC(=N2)/C=C/C3=CC=CC=C3)N4CCN(CC4)C + CCNC(=O)c1noc(-c2cc(C(C)C)c(O)cc2O)c1-c1ccc(CN2CCOCC2)cc1 [Luminespib] (partner 0.01 µM)
Method in brief: as §1

[3] = compound: CC1=CC(=NN1)NC2=CC(=NC(=N2)/C=C/C3=CC=CC=C3)N4CCN(CC4)C + CS(=O)(=O)CCNCc1ccc(-c2ccc3ncnc(Nc4ccc(OCc5cccc(F)c5)c(Cl)c4)c3c2)o1 [Lapatinib] (partner 2 µM)
Method in brief: as §1

Cell Line | relative viability ([1]; first compound 0.08 µM) | relative viability ([1]; first compound 0.253 µM) | relative viability ([1]; first compound 0.8 µM) | relative viability ([1]; first compound 2.53 µM) | relative viability ([1]; first compound 8 µM) | relative viability ([2]; first compound 0.08 µM) | relative viability ([2]; first compound 0.253 µM) | relative viability ([2]; first compound 0.8 µM) | relative viability ([2]; first compound 2.53 µM) | relative viability ([2]; first compound 8 µM) | relative viability ([3]; first compound 0.08 µM) | relative viability ([3]; first compound 0.253 µM) | relative viability ([3]; first compound 0.8 µM) | relative viability ([3]; first compound 2.53 µM) | relative viability ([3]; first compound 8 µM)
LCLC-97TM1 | 0.381 | 0.352 | 0.292 | 0.152 | 0.078 | 0.806 | 0.796 | 0.67 | 0.341 | 0.0891 | 1.29 | 1.06 | 0.922 | 0.158 | 0.0857
LCLC-103H | 0.993 | 1.19 | 1.19 | 1.07 | 0.302 | 0.912 | 1.03 | 0.876 | 0.814 | 0.269 | – | – | – | – | –
LK-2 | 0.193 | 0.221 | 0.208 | 0.262 | 0.203 | 0.174 | 0.175 | 0.226 | 0.16 | 0.151 | 0.885 | 0.852 | 0.852 | 0.604 | 0.181
LOU-NH91 | 0.775 | 0.757 | 0.741 | 0.706 | 0.403 | 0.391 | 0.402 | 0.322 | 0.299 | 0.228 | 0.669 | 0.785 | 0.698 | 0.567 | 0.333
LU99A | 0.554 | 0.549 | 0.452 | 0.16 | 0.13 | 0.254 | 0.235 | 0.192 | 0.197 | 0.161 | 0.958 | 0.943 | 0.728 | 0.252 | 0.125
LXF-289 | 0.817 | 0.825 | 0.682 | 0.23 | 0.0611 | 0.658 | 0.755 | 0.672 | 0.33 | 0.104 | 0.918 | 0.969 | 0.839 | 0.487 | 0.574
NCI-H23 | 0.559 | 0.603 | 0.439 | 0.181 | 0.108 | 0.183 | 0.206 | 0.197 | 0.212 | 0.205 | 0.981 | 1.37 | 1 | 0.46 | 0.139
NCI-H322M | 0.97 | 0.866 | 0.817 | 0.447 | 0.128 | 0.8 | 1.06 | 0.639 | 0.326 | 0.246 | 0.56 | 0.67 | 0.507 | 0.321 | 0.208
NCI-H358 | 0.607 | 0.478 | 0.264 | 0.14 | 0.11 | 0.35 | 0.303 | 0.261 | 0.206 | 0.0878 | 0.511 | 0.471 | 0.335 | 0.147 | 0.134
NCI-H441 | 0.689 | 0.794 | 0.457 | 0.254 | 0.15 | 0.471 | 0.466 | 0.409 | 0.31 | 0.142 | – | – | – | – | –
NCI-H460 | 0.948 | 0.839 | 0.159 | 0.0358 | 0.0091 | 0.0265 | 0.0399 | 0.0277 | 0.0233 | 0.0124 | 0.909 | 0.952 | 0.943 | 0.0124 | 0.0122
NCI-H520 | 0.798 | 0.778 | 0.473 | 0.251 | 0.0942 | 0.25 | 0.269 | 0.186 | 0.195 | 0.242 | 0.831 | 0.887 | 0.573 | 0.182 | 0.0952
NCI-H522 | – | – | – | – | – | 0.957 | 0.995 | 1.15 | 0.845 | 0.507 | – | – | – | – | –
NCI-H596 | 0.984 | 1.04 | 0.857 | 0.554 | 0.197 | 1.04 | 0.927 | 0.777 | 0.402 | 0.2 | 0.976 | 1.09 | 0.912 | 0.505 | 0.286
NCI-H647 | 1.19 | 1.06 | 0.683 | 0.0821 | 0.0474 | 0.308 | 0.267 | 0.104 | 0.172 | 0.0506 | 1.02 | 1.29 | 1.08 | 0.0749 | 0.0425
NCI-H661 | – | 1.23 | 1.08 | 0.945 | 0.383 | 0.907 | – | 0.919 | 0.55 | 0.321 | 0.489 | 0.53 | 0.57 | 0.419 | 0.146
NCI-H727 | 0.856 | 0.805 | 0.767 | 0.348 | 0.185 | 0.467 | – | 0.264 | 0.252 | 0.208 | 0.744 | 0.525 | 0.805 | 0.494 | 0.193
NCI-H838 | 0.89 | 0.936 | 0.742 | 0.434 | 0.0999 | 0.31 | 0.26 | 0.242 | 0.25 | 0.118 | 1.03 | 1.28 | 0.831 | 0.214 | 0.091
NCI-H1299 | 0.951 | 0.938 | 0.938 | 0.442 | 0.222 | – | – | – | – | – | 0.955 | 0.977 | 0.982 | 0.685 | 0.257
NCI-H1355 | 1 | 1.04 | 1.07 | 0.756 | 0.253 | 0.744 | 0.644 | 0.682 | 0.47 | 0.129 | 1.11 | 1.03 | 0.944 | 0.645 | 0.422
NCI-H1395 | – | – | – | – | – | 0.782 | 0.687 | 0.699 | 0.401 | 0.293 | 1.22 | 1.03 | 0.932 | 0.456 | 0.275
NCI-H1437 | 0.773 | 0.922 | 0.898 | 0.999 | 0.225 | 1.11 | 1.13 | 1.13 | 0.996 | 0.53 | 0.853 | 0.909 | 0.833 | 0.347 | 0.105
NCI-H1623 | – | – | – | – | – | 0.579 | 0.493 | 0.48 | 0.494 | 0.305 | – | – | – | – | –
NCI-H1703 | 0.636 | 0.597 | 0.339 | 0.101 | 0.0884 | – | – | – | – | – | 1.11 | 0.975 | 0.373 | 0.177 | 0.167
NCI-H1793 | – | – | – | – | – | 0.16 | 0.184 | 0.151 | 0.136 | 0.116 | 0.528 | 0.566 | 0.656 | 0.1 | 0.0979
NCI-H2342 | – | – | – | – | – | 0.543 | 0.699 | 0.705 | 0.546 | 0.536 | – | – | – | – | –
SW 900 | – | – | – | – | – | 0.164 | 0.136 | 0.159 | 0.168 | 0.11 | – | – | – | – | –
